Values after ≈ are worked out from the molar mass of the structure shown. Read-outs that look alike come from different tables or passages of the source. Numbered stars: 1 amine (or outer) side, 2 acyl side, 3 side chain; on linkers, the order of the positions; unused ones are H or OH. Square brackets hold non-standard residues; d marks the D form. Peptide text beside a SMILES is read from it. ξ: configuration not given here. Trp(1-(1,1-Me2-allyl)) = C=CC(C)(C)n1cc(C[C@H](N)C(=O)O)c2ccccc21; X4 = CC(C)(C1CO1)n1cc(C[C@H](N[*:1])C(=O)[*:2])c2ccccc21; Tyr(3-NO2) = N[C@@H](Cc1ccc(O)c([N+](=O)[O-])c1)C(=O)O; X3 = CC(CC(C(=O)[*:2])N(C)[*:1])C(=O)O; Gly(E-crotyl) = C/C=C/C[C@H](N)C(=O)O; NMeL = CN[C@@H](CC(C)C)C(=O)O; ξNMeL = CNC(CC(C)C)C(=O)O

This passage reports MIC and IC50 results from publication PMC6395927, “Rufomycin Targets ClpC1 Proteolysis in Mycobacterium tuberculosis and M. abscessus” (Antimicrobial Agents and Chemotherapy, 2019).

The test system of test [1] is Candida albicans (ATCC 10231). Put plainly: MIC against nonmycobacteria (OD570). The format is cell-based. The following applies: ATCC10231, C. albicans. From the text: Standard compounds used were ampicillin (AMP) and gentamicin (GEN). […] Amphotericin B (AmphB) and ketoconazole (KETO) were used as standard compounds.
The subject of test [2] is M. tuberculosis strain H37Rv (ATCC 27294). In words: microbe, parasite or virus in culture. The format is cell-based, Mycobacterium tuberculosis.
In test [3] the test system is M. tuberculosis 5 global clade representatives. Put plainly: microbe, parasite or virus in culture. The format is cell-based. As to conditions: Mycobacterium tuberculosis, read-out: MICs.
Test [4] concerns M. abscessus (ATCC 19977). Put plainly: microbe, parasite or virus in culture. The format is cell-based, Mycobacterium abscessus. The following applies: Mycobacteroides abscessus.
Test [5] has as its system M. chelonae (ATCC 35752). In words: microbe, parasite or virus in culture. The format is cell-based, Mycobacterium chelonae. As to conditions: Mycobacteroides chelonae, ATCC35752.
In test [6] the test system is M. marinum (ATCC 927). Put plainly: microbe, parasite or virus in culture. The following applies: Mycobacterium marinum, ATCC927. The format is cell-based.
In test [7] the test system is M. bovis (ATCC 35734). Put plainly: microbe, parasite or virus in culture. The format is cell-based. As to conditions: Mycobacterium tuberculosis variant bovis, ATCC35734.
For test [8], the system named is M. kansasii (ATCC 12478). In words: microbe, parasite or virus in culture. The format is cell-based. As to conditions: Mycobacterium kansasii, ATCC12478.
Test [9] relates to M. avium (ATCC 15769). Put plainly: microbe, parasite or virus in culture. The format is cell-based. The following applies: Mycobacterium avium, ATCC15769.
Test [10] has as its system M. smegmatis (ATCC 700084). In words: microbe, parasite or virus in culture. The format is cell-based. The following applies: Mycolicibacterium smegmatis, ATCC700084.
In test [11] the test system is Vero cell (ATCC CRL-81). Put plainly: cells. The following applies: Chlorocebus sabaeus, 72 h. The format is cell-based.
In test [12] the test system is J774A.1 macrophage (ATCC TIB-67). In words: Cytotoxicity in mammalian cells (resazurin). The format is cell-based, murine. The following applies: Mus musculus, J774.A1; J774, 72 h. (Alamar Blue is a resazurin reagent that responds to reducing activity.)
Test [13] deals with MDA-MB-231 breast cancer cells. In words: Cytotoxicity against cancer cell lines (CellTiter 96). The format is cell-based. As to conditions: Homo sapiens; MDA-MB-231, paclitaxel column. How it is done:
(§1) Human melanoma cancer cells (MDA-MB-435), human breast cancer cells (MDA-MB-231), and human ovarian cancer cells (OVCAR3) were purchased from the American Type Culture Collection (Manassas, VA). Each cell line was propagated at 37°C in 5% CO2 in RPMI 1640 medium supplemented with FBS (10%), penicillin (100 U/ml), and streptomycin (100 μg/ml). Cells in log phase were harvested by trypsinization, followed by two washing cycles to remove all traces of enzyme. A total of 5,000 cells were seeded per well of a 96-well clear, flat-bottom plate (Microtest 96; Falcon) and incubated overnight (37°C in 5% CO2). Samples dissolved in DMSO were then diluted and added to the respective wells. The cells were incubated in the presence of test substance for 72 h at 37°C and evaluated for viability with a commercial absorbance assay (CellTiter 96 AQueous One Solution cell proliferation assay; Promega Corp., Madison, WI) that measured viable cells. IC50 values are expressed in micromolar values relative to the solvent (DMSO) control.

The subject of test [14] is MDA-MB-435 melanoma cells. The description is as above. The format is cell-based. The following applies: Homo sapiens; MDA-MB-435, paclitaxel column. How it is done:
as §1

Test [15] has as its system OVCAR 3 ovarian cancer cells. The description is as above. The format is cell-based. As to conditions: Homo sapiens; OVCAR 3, paclitaxel column. Here is the method: as §1
Setting [16] is: Mycobacterium tuberculosis, read-out: MIC against M. tuberculosis.

Take `CC(=O)N1CCN(c2ccc(OCC3COC(Cn4ccnc4)(c4ccc(Cl)cc4Cl)O3)cc2)CC1` (stereo not shown) [KETO, ketoconazole]: in test [1], the MIC was determined as 0.98 µM (≈ 0.521 µg/mL).
`CC(=O)NC[C@H]1CN(c2ccc(N3CCOCC3)c(F)c2)C(=O)O1` [LZD, linezolid]: the MIC in test [2] (Mycobacterium tuberculosis) was 1.8 µM (≈ 0.607 µg/mL); in test [3] it was 0.41 to 1.6 µM (≈ 0.138 to 0.54 µg/mL).
Consider `COc1c(N2C[C@@H]3CCCN[C@@H]3C2)c(F)cc2c(=O)c(C(=O)O)cn(C3CC3)c12` [MXF, moxifloxacin], for which the MIC in test [2] (Mycobacterium tuberculosis) was determined as 0.26 µM (≈ 0.104 µg/mL).
Turning to `O=[N+]([O-])c1cn2c(n1)OC[C@@H](OCc1ccc(OC(F)(F)F)cc1)C2` [PA824, pretomanid], the MIC in [2] (Mycobacterium tuberculosis) was 0.04 µM (≈ 0.0144 µg/mL); in test [3], 0.03 to 0.1 µM (≈ 0.0108 to 0.0359 µg/mL); in [4] (ATCC19977, M. abscessus, read-out: MIC), above 8 µM; in test [5] (M. chelonae, read-out: MIC), above 8 µM; in [6] (M. marinum, read-out: MIC), above 8 µM; in test [7] it was 0.1 µM (≈ 0.0359 µg/mL). Moreover, the MIC in test [8] (M. kansasii, read-out: MIC) was 4.7 µM (≈ 1.69 µg/mL); in test [9] (M. avium, read-out: MIC) it was above 8 µM.
Usually IC50 stands for the midpoint of a concentration-inhibition curve. For the compound `CO[C@H]1/C=C/O[C@@]2(C)Oc3c(C)c(O)c4c(O)c(c(/C=N/N5CCN(C)CC5)c(O)c4c3C2=O)NC(=O)/C(C)=C\C=C\[C@H](C)[C@H](O)[C@@H](C)[C@@H](O)[C@@H](C)[C@H](OC(C)=O)[C@@H]1C` [RIF, rifampin], the MIC in test [2] (Mycobacterium tuberculosis) was 0.04 µM (≈ 0.0329 µg/mL); in test [3] it was 0.01 to 0.027 µM (≈ 0.00823 to 0.0222 µg/mL); in [10] it was above 120 µM; in [4] (ATCC19977), above 4 µM; in test [5], above 4 µM; in [6], 0.05 µM (≈ 0.0411 µg/mL). The MIC in test [7] is below 0.02 µM; in test [8], 0.15 µM (≈ 0.123 µg/mL); in [9] it was 0.16 µM (≈ 0.132 µg/mL). Further, the IC50 is 120000 nM in [11] and 95000 nM in [12].
In test [2] (Mycobacterium tuberculosis), `[H]/N=C(/N)N[C@H]1[C@H](O)[C@@H](O)[C@H](O[C@@H]2O[C@@H](C)[C@](O)(C=O)[C@H]2O[C@@H]2O[C@@H](CO)[C@H](O)[C@@H](O)[C@@H]2NC)[C@@H](N/C(N)=N\[H])[C@@H]1O` [STR, streptomycin] returned an MIC of 0.15 µM (≈ 0.0872 µg/mL).
With `C/C=C/C[C@@H]1NC(=O)[C@H](CC(C)C)NC(=O)C(CC(C)C(=O)O)N(C)C(=O)[C@H](C)NC(=O)[C@H](Cc2ccc(O)c([N+](=O)[O-])c2)NC(=O)[C@H](CC(C)C)N(C)C(=O)[C@H](Cc2cn(C(C)(C)C3CO3)c3ccccc23)NC1=O` (stereo partly shown) [VII] (cyclo(A[X3]L[Gly(E-crotyl)][X4][NMeL][Tyr(3-NO2)])), the MIC in test [2] (setting [16]) was 1 µM (≈ 1.06 µg/mL).
Still for that read-out and setting: the same measure for `C=CC(C)(C)n1cc(C[C@@H]2NC(=O)[C@H](C/C=C/C)NC(=O)[C@H](CC(C)C)NC(=O)C(CC(C)C)N(C)C(=O)[C@H](C)NC(=O)[C@H](Cc3ccc(O)cc3)NC(=O)[C@H](CC(C)C)N(C)C2=O)c2ccccc21` (stereo partly shown) [VI] (cyclo(A[ξNMeL]L[Gly(E-crotyl)][Trp(1-(1,1-Me2-allyl))][NMeL]Y)): above 50 µM; for `C/C=C/C[C@@H]1NC(=O)[C@H](CC(C)C)NC(=O)C(CC(C)C)N(C)C(=O)[C@H](C)NC(=O)[C@H](Cc2ccc(O)c([N+](=O)[O-])c2)NC(=O)[C@H](CC(C)C)N(C)C(=O)[C@H](Cc2cn(C(C)(C)C3CO3)c3ccccc23)NC1=O` (stereo partly shown) [V] (cyclo(A[ξNMeL]L[Gly(E-crotyl)][X4][NMeL][Tyr(3-NO2)])): 0.07 µM (≈ 0.072 µg/mL).
Consider `CC(=O)O[C@H]1C(=O)[C@@]2(C)[C@H]([C@H](OC(=O)c3ccccc3)[C@]3(O)C[C@H](OC(=O)[C@H](O)[C@@H](NC(=O)c4ccccc4)c4ccccc4)C(C)=C1C3(C)C)[C@]1(OC(C)=O)CO[C@@H]1C[C@@H]2O` [paclitaxel], for which the figures for the IC50 in [13], in [14] and in test [15] were 170 nM, 0.1 nM and 1.5 nM, respectively.
In [2], capreomycin came in with an MIC of 0.39 µM.
